For assay [1], the target named is T1, Bifunctional 3'-5' exonuclease/ATP-dependent helicase WRN [2-1432] (UniProt Q14191).
T1 construct: 2-1432
In words: WRN activity Format A. The method, then:
Full length WRN protein (aa 2-1432) (production described separately) was used for the biochemical activity assays. The 39-mer ssDNA “C6.18” ([…]) was purchased from IDT and used as a substrate. Quantification of ATP hydrolysis was evaluated using the ADP-Glo assay kit (Promega, Madison, WI). An enzyme titration time-course was performed to determine the optimal assay conditions. […] To evaluate the inhibitory effects of the compounds, 11-point 3-fold serial dilutions were prepared in DMSO.50nL of each concentration in duplicate was preincubated for 30 minutes in a 384-well microplate (Greiner #784075) with 5μL of 0.5nM WRN in assay buffer. The reaction was initiated by adding 5μL of 200nM C6.18 DNA with 20μM ATP and was allowed to proceed for 30 minutes at room temperature. The reaction was stopped with 10μL ADP-Glo reagent for 1 hour to remove unreacted ATP. Lastly, 20μL ATP detection reagent was added and incubated for 1 hour to generate the luminescence signal. Control wells included “high controls” with no inhibition (DMSO, no compound) and “low controls” with maximum inhibition (no WRN). Luminescence was recorded on a PHERAstar (BMG Labtech, Ortenberg, Germany). Data was fit using the “Smart Fit” method within the Genedata Screener Software (Basel, Switzerland) to obtain IC50 values using four-parameter fits. Reported IC50s are the geometric means of at least two independent trials.

Assay [2] concerns the target T1, Bifunctional 3'-5' exonuclease/ATP-dependent helicase WRN [2-1432]. In words: WRN activity Format B. The method, then: The 39-mer ssDNA “C6.18” ([…]) was purchased from IDT and used as a substrate. Quantification of ATP hydrolysis was evaluated using the ADP-Glo assay kit (Promega, Madison, WI). An enzyme titration time-course was performed to determine the optimal assay conditions. […] Data was fit using the “Smart Fit” method within the Genedata Screener Software (Basel, Switzerland) to obtain IC50 values using four-parameter fits. Reported IC50s are the geometric means of at least two independent trials.

SMILES strings stand for the structures.

IC50 data for 2 compounds are collected here from BindingDB's records for patent US20250346600 (Moma Therapeutics, 2025).

T1 sequence (Q14191 2-1432): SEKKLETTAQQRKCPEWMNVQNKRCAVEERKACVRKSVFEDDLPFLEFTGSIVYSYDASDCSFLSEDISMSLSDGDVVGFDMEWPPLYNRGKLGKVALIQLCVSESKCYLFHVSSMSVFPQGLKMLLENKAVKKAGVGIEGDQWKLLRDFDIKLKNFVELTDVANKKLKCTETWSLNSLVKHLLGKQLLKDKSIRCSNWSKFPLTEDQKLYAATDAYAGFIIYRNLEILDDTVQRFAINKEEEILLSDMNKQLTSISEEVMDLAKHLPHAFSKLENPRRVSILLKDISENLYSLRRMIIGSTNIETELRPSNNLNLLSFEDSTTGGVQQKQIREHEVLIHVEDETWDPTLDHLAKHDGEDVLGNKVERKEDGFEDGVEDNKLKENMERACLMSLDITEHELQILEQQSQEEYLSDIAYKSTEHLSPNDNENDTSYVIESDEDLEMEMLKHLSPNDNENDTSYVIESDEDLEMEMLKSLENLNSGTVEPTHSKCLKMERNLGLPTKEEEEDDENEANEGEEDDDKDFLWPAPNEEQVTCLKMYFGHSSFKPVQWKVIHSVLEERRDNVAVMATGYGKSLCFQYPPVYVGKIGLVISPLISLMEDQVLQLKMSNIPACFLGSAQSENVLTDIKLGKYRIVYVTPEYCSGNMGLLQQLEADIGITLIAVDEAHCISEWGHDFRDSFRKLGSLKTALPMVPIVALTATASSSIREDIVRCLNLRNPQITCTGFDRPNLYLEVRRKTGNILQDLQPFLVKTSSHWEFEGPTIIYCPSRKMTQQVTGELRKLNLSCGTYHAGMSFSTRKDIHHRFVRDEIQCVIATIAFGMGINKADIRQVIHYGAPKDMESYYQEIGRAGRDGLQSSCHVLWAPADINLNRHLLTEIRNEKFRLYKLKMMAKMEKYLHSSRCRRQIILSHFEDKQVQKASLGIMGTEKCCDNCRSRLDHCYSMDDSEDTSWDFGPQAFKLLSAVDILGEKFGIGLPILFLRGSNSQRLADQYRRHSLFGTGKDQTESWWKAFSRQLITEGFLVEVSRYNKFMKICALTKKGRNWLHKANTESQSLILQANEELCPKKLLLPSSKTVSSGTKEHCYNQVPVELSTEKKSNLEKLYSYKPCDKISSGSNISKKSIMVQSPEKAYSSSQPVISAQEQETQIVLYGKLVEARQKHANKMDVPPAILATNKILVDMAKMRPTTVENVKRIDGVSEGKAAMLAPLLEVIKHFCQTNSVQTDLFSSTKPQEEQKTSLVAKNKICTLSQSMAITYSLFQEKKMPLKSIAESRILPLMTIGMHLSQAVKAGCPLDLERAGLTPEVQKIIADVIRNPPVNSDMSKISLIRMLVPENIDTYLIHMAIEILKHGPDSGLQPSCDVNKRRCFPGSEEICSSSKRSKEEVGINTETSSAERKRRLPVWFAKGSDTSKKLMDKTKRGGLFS

`C=CC(=O)N1CCOc2nn(-c3ccc(C4CCC4)cc3O)c3c2C(C1)N(C(=O)C1=CC2=NN=C(Br)C2=CC1)CC3` (stereo not drawn) [US20250346600, Compound 40]: the IC50 (usually the concentration that inhibits the measured activity by half) in assay [1] was less than 0.0015 µM; in assay [2] it was “in the range around 0.035 µM”.
With `C=CC(=O)N1CCc2nn(-c3ccc(C4CC4)cc3)c3c2C(C1)N(C(=O)C1=CN=C2N=C(C(F)(F)F)N=C2C1)CC3` (stereo not drawn) [US20250346600, Compound 124], the IC50 result in assay [1] was “in the range around 0.035 µM”.
